According to PMC4738305, “Metabolism and Disposition of Aditoprim in Swine, Broilers, Carp and Rats” (Scientific Reports, 2016):
Where two headings read alike, the source gives them in different places.

Columns and labels:
[1] = Metabolite profiling of ADP in excreta, plasma and bile (LC-v.ARC/MS-IT-TOF); type: in vivo, swine; conditions: for percentage of the individual metabolite compared with the total concentration of ADP-related: within 6 h after dosing; for Average percentage of ADP and its metabolites in total dose: Swine, single oral 5 mg/kg b.w. ^3H-ADP
Experimental: (§1) Animals (4 swine, 6 broilers, 6 carp, and 3 male and 3 female rats) were housed individually in clean, suspended wire-mesh metabolism cages, designed to separate the urine from the feces (carp were raised in individual aquaria). Each animal was weighed and assigned with a permanent identification number. A single dose of ^3 H-ADP (5 mg/kg b. w., 0.1 Ci/g) was administered via the oral gavage. Excreta were collected on ice at the pre-administration, in the period of 6, 12, and 24 h on day 1 d, and afterwards, intermittently in the period of 24 h up to 14 d. The piscine excreta were collected by changing and collecting raised water. The total volume or weight of each sample was measured and homogenized. The total radioactivity levels were determined through LSC for the recovery calculations. After the preparation, the samples were analyzed through LC/MS-IT-TOF with v. ARC radiometric detection (XenoBioticLaboratories, Inc.) for metabolite profiling. The pretreatment samples were used as controls to determine the background radioactivity or the endogenous nondrug-related ions observed within respective matrices or their extracts.
(§2) A total of 36 animals from each species (swine n = 24) were randomly assigned to six equal treatment groups and administered a single daily dose of ^3 H-ADP at 5 mg/kg b. w. (0.1 Ci/g) through oral gavage for 7 consecutive days. All the animals were housed on the basis of their group in the cages or aquaria throughout the whole study period. A group of animals was slaughtered through exsanguination under diethyl ether inhalation of anesthesia in the period of 6 h, 1, 3, 7, 14, and 21 d after the administration. The blood samples were immediately collected into the heparinized tubes and was centrifuged at 1920 × g at 4 °C for 10 min to obtain the plasma. The tissues from the heart, liver, spleen, lung, kidney, craw (broilers), stomach, intestine, fat, skin, muscle, thymus, pancreas, bile, bladder, hair (scale for carp), genital gland, adrenal glands, swim bladder (carp), brain, lymph, and bursa (broilers) were carefully excised and collected. The tissues were thoroughly rinsed with the deionized water to remove the residuary blood, blotted to dryness, and finally to perform the homogenization. In order to avoid cross-contamination the dissecting instruments were washed during the tissue procurements. The blank tissues were collected in order to provide control matrices. The total radioactivity levels in each sample were determined through LSC. The samples extracted from the plasma, bile, and tissues of the liver, kidney, muscle, and fat/skin were analyzed through LC/MS-IT-TOF and v. ARC radiometric detection for metabolite profiling. The blank samples were used as control to determine the background radioactivity or the endogenous nondrug-related ions observed within respective matrices or their extracts.
(§3) For metabolite profiling, the urine and feces samples from each animals were pooled proportionally to the excreted amount in each sampling period from 0 to 6 h, 6 h to 1 d, 1 to 3 d, 3 to 7 d, and 7 to 14 d post-dose, respectively. All samples were fully homogenized before the process. The pre-dose and blank samples served as the controls for determining the background radioactivity or the endogenous, nondrug-related ions observed within respective matrices or their extracts.
(§4) The urine samples (plasma, bile and raised water for carp) was subjected to solid-phase extraction with an Oasis MCX cartridge (3 mL, […]; Waters, Milford, MA, USA) for metabolite purification and enrichment. The pH value was adjusted to 2.8–3.2 by adding 1 M hydrochloric acid (HCl), and 2 mL of the sample was transferred into MCX cartridge, which was preconditioned with 3 mL of methanol and 3 mL of 0.1 mol/L HCl solution. The cartridge was washed with 3 mL of 0.1 mol/L HCl solution and was eluted with 5 mL of NH4OH/methanol (4:96, v:v). The effluent was concentrated to dryness under a stream of nitrogen at 40 °C. […]

[2] = Concentration and elimination of ADP and its metabolites in liver, kidney, muscle, fat/skin after oral ^3H-ADP for 7 d; type: in vivo, swine; conditions: for half-life: pig, po; for concentration at 0.25 d / concentration at 1 d / concentration at 3 d / concentration at 7 d / concentration at 14 d: swine, oral, 5 mg/kg b.w.
Experimental: as §2
The feces and tissues (2 g) were diluted with a mixture of methanol and chloroform (1:3, v:v; 2 mL/g homogenate). This procedure was carried out in a fume hood for the safety aspects. The pH value was adjusted to 9.0 with NH4OH. The mixture was vortexed and sonicated for 5 min and 10 min, respectively, and finally the samples were centrifuged at 7690 × g for 10 min. The supernatant was aspirated and then transferred into a new centrifuge tube. The obtained pellet was again subjected to the same process of vortex, ultrasonication, extraction, and centrifugation. The combined supernatant was concentrated under a stream of nitrogen in a water bath at 40 °C. The residue was reconstituted with 0.3 mL of methanol–water (1:9, v:v) before the injection into the LC-v. ARC/MS-IT-TOF system for analysis.
ADP and its metabolites in the prepared samples were determined with a v. ARC radiometric detector and a hybrid IT/TOF mass spectrometer connected to the HPLC system (Shimadzu Corp., Kyoto, Japan). The LC system was equipped with a solvent delivery pump (LC-20AD), an auto-sampler (SIL-20AC), a degasser (DGU-20 A 3), a photodiode array detector (SPD-M20A), a communication base module (CBM-20 A), and a column oven (CTO-20AC). The chromatographic separation was achieved by using an Agilent extend-C18 column (2.1 mm × 150 mm, 5 μm) with a gradient mobile phase of A (0.01% ammonia and 5 mM ammonium acetate in water) and B (methanol) at a flow rate of 0.2 mL/min. The column temperature was maintained at 35 °C. Various HPLC methods were performed because of the large number of different metabolites to be analyzed. For the porcine sample, method 1 started at 5% B and increased to 20% B over 35 min, then to 55% B by 60 min, followed by re-equilibration for another 10 min. For the remaining samples, method 2 started at 10% B and increased to 60% B over 30 min, subsequently was maintained at 60% B for an additional 10 min, and then changed to 90% B over 2 min and maintained for 2 min. Afterwards, a re-equilibration step (decreased to 10% B over 1 min and maintained at 10% B for additional 9 min) was followed. For each matrix, more than 98% of the radioactivity injected into the column was eluted during the running time of the gradient program. […]

[3] = Metabolite profiling of ADP in excreta, plasma and bile (LC-v.ARC/MS-IT-TOF); type: in vivo, carp; conditions: for percentage of the individual metabolite compared with the total concentration of ADP-related: within 6 h after dosing; for Average percentage of ADP and its metabolites in total dose: Carp, Excreta, single oral 5 mg/kg b.w. ^3H-ADP
Experimental: as §1, §2, §3, §4

[4] = swine kidney, after 5 mg/kg b. w. for 7 days, read-out: t1/2 of the individual compound (converted)
[5] = swine liver, after 5 mg/kg b. w. for 7 days, read-out: t1/2 of the individual compound (converted)
[6] = swine muscle, after 5 mg/kg b. w. for 7 days, read-out: t1/2 of the individual compound (converted)
[7] = tissues (liver, kidney, muscle, fat/skin), 5 mg/kg, swine tissues, read-out: t1/2 of the individual compound, range over tissues

Row | percentage of the individual metabolite compared with the total concentration of ADP-related ([1]; Swine Feces) [%] | percentage of the individual metabolite compared with the total concentration of ADP-related ([1]; Swine Plasma) [%] | percentage of the individual metabolite compared with the total concentration of ADP-related ([1]; Swine Urine) [%] | Average percentage of ADP and its metabolites in total dose ([1]; Feces) [%] | Average percentage of ADP and its metabolites in total dose ([1]; Urine) [%] | half-life [2, 4] [h] | half-life [2, 5] [h] | concentration at 0.25 d ([2]; fat) [ng/g] | concentration at 0.25 d ([2]; kidney) [ng/g] | concentration at 1 d ([2]; kidney) [ng/g] | concentration at 3 d ([2]; kidney) [ng/g] | concentration at 0.25 d ([2]; liver) [ng/g] | concentration at 1 d ([2]; liver) [ng/g] | concentration at 3 d ([2]; liver) [ng/g] | concentration at 0.25 d ([2]; muscle) [ng/g] | concentration at 1 d ([2]; muscle) [ng/g] | percentage of the individual metabolite compared with the total concentration of ADP-related ([3]; Carp Bile) [%] | percentage of the individual metabolite compared with the total concentration of ADP-related ([3]; Carp Extra (excreta)) [%] | percentage of the individual metabolite compared with the total concentration of ADP-related ([3]; Carp Plasma) [%] | Average percentage of ADP and its metabolites in total dose [3] [%] | SMILES | other results
1 | 89.1 | 53.0 | 42.3 | 16.0 | 33.4 | 80.9 | 105 | 1270 ± 430 | 19000 ± 8810 | 4160 ± 2000 | 1080 ± 220 | 7600 ± 1040 | 3010 ± 900 | 1320 ± 270 | 1490 ± 390 | 890 ± 220 | 64.7 | 87.5 | 61.7 | 82.4 | COc1cc(Cc2cnc(N)nc2N)cc(OC)c1N(C)C [A0, 2,4-Diamino-5-[4-(dimethylamino)-3,5-dimethoxybenzyl] pyrimidine] | share of sample radioactivity ([1]; swine urine, period of 7–14 d (as the text reads), single oral dose): approximately 90%; half-life ([2]; swine fat, after 5 mg/kg b. w. for 7 days, read-out: t1/2 of the individual compound (converted)): 80.9 h; half-life [2, 6]: 38.9 h; half-life [2, 7]: 38.9 to 105 h; share of the sample radioactivity in the detected tissues ([2]; swine liver, kidney, muscle, fat, over the sampling times): more than 42%; concentration at 1 d ([2]; fat): 510 ± 120 ng/g; concentration at 3 d ([2]; fat): 330 ± 70 ng/g; concentration at 7 d ([2]; fat): 150 ± 30 ng/g; concentration at 7 d ([2]; kidney): 360 ± 90 ng/g; concentration at 14 d ([2]; kidney): 110 ± 20 ng/g; concentration at 7 d ([2]; liver): 820 ± 140 ng/g; concentration at 14 d ([2]; liver): 240 ± 50 ng/g; concentration at 3 d ([2]; muscle): 380 ± 90 ng/g; concentration at 7 d ([2]; muscle): 70 ± 10 ng/g; level of intact ADP ([3]; carp, single oral 5 mg/kg b. w. (Table S5)): 82.4 % of the oral dose
2 | 9.7 | 23.7 | 11.4 | 2.9 | 13.3 | 21.8 | 25 | 300 ± 70 | 15400 ± 5300 | 3430 ± 1250 | 160 ± 40 | 4620 ± 850 | 1650 ± 330 | 640 ± 110 | 850 ± 250 | 150 ± 40 | 25.5 | 9.9 | 23.9 | 8.9 | CNc1c(OC)cc(Cc2cnc(N)nc2N)cc1OC [A1, N-monodesmethyl-ADP] | half-life [2, 6]: 17.5 h; half-life [2, 7]: 17.5 to 25 h; concentration at 1 d ([2]; fat): 60 ± 10 ng/g; concentration at 7 d ([2]; kidney): 20 ng/g; concentration at 3 d ([2]; muscle): 50 ± 10 ng/g
3 | 1.1 | 15.0 | 11.8 | 0.5 | 11.3 | 10.1 | 23.8 | 70 ± 10 | 6360 ± 1040 | 1300 ± 400 | 20 ± 10 | 2440 ± 480 | 840 ± 110 | 310 ± 80 | 160 ± 40 | 50 ± 10 | 9.8 | 2.5 | 14.4 | 2.9 | COc1cc(Cc2cnc(N)nc2N)cc(OC)c1N [A2, N-didesmethyl-ADP] | half-life ([2]; 5 mg/kg, kidney and liver of swine and rat, read-out: t1/2 of the individual compound, range over tissues): 10.1 to 38.6 h
